“Also recorded” adds a separate entry of the source.
Legend:
Aβ40, Aβ42 and Aβ1-x = experiment: Aβ ELISA of conditioned medium of PS70 cells treated with NSAIDs; format: cell-based, human; conditions: 24 hours; for Aβ1-x level (ELISA): high doses
Experimental: (§1) Cell culture and drug treatment: PS70 cells, CHO cells stably overexpressing wild-type human PS1 and APP 751 (Xia, W. et al., J. Biol. Chem. 272, 7977-7982, 1997), mouse N2a neuroblastoma, or human embryonic kidney (HEK) cells were used in this study. Cells were cultured in OPTI-MEMI with 5% fetal bovine serum at 37° C. with 5% CO2 in a tissue culture incubator. Primary cultured hippocampal-cortical neurons were prepared from embryonic day 16-18 mouse brain as described (Berezovska, O. et al., Brain Res Mol Brain Res 69: 273-280, 1999).
(§2) The NSAIDs (S)-ibuprofen (250 mM, Biomol, Plymouth Meeting, Penn.), (R)-ibuprofen (250 mM, Biomol), and flurbiprofen (250 mM, Calbiochem, San Diego, Calif.) were dissolved in 100% ethanol. […] Cells were plated onto either 12-well plates (for Aβ determinations) or onto 4-chamber slides (FLIM studies) and treated for 24 hours with NSAIDs prior to the analysis. A vehicle control chamber treated with ethanol or DMSO (0.1%) was included in each experiment. Cell toxicity was analyzed for all drugs tested by measuring adenylate kinase levels using Toxi-light reagent (Camdex, New Jersey).
(§3) ELISA, BACE-specific enzymatic activity assay and Western Blots: For Aβ ELISA we used 500 μl of conditioned medium collected 24 hours post-treatment. Formic acid-extractable Aβ in the mouse brain was measured as described (Fukumoto, H.,et al., Am. J. Pathol. 164, 719-725, 2004). The capture antibody was BNT77 and the detection antibody was horseradish peroxidase (HRP)-conjugated BA27 for Aβ40 and HRP-conjugated BC05 for Aβ42 (Asami-Odaka, A. et al., Biochemistry 34: 10272-10278, 1995). We used BAN50 as a capture antibody and HRP-conjugated BNT77 as a detection antibody for Aβ1-x (a gift from Takeda, Japan) (Asami-Odaka, A. et al., Biochemistry 34: 10272-10278, 1995). BACE activity was measured using a sensitive BACE-specific enzymatic activity assay (Fukumoto, H.,et al., Am. J. Pathol. 164, 719-725, 2004).
We treated Chinese hamster ovary (CHO) cells stably transfected with APP and PS1 (PS70 cells) with several NSAIDs at different doses for 24 hours and measured Aβ40 and Aβ42 using ELISA (FIG. 14).

APP and PS1 = target: T1, APP and PS1 (Homo sapiens, UniProt P49768); experiment: FLIM assay for PS1-APP proximity after NSAID treatment; format: cell-based; conditions: donor APP-CT-FITC, acceptor loop PS1-Cy3, 24 h, 375 μM S-ibuprofen, 375 μM flurbiprofen, 500 μM aspirin, DMSO vehicle 2127 ± 224
T1 construct: expressed in transfected cells
Experimental: as §1, §2

Aβ42 and Aβ40 = experiment: Brain Aβ ELISA in wtPS1 transgenic mice treated with S-ibuprofen; format: in vivo, mouse; conditions: 3-month-old wtPS1 transgenic mice, 375 ppm in diet, 15 days; P=0.03
Experimental: as §3
(§4) Ibuprofen treatment of wtPS1 mice: Three-month-old transgenic mice over-expressing wtPS1 were treated with S-ibuprofen (375 ppm in diet, Research Diets, New Brunswick, N.J.) or a control diet for 15 days (6 mice per group). […] At the end of the experimental period animals were sacrificed by CO2 inhalation. The brains were dissected, half of each brain was frozen on dry ice for Aβ ELISA and BACE activity analysis and the other half was fixed in 4% paraformaldehyde for immunohistochemistry. […]

BACE = target: T2, BACE (Mus musculus, UniProt P56818); experiment: BACE-specific enzymatic activity assay in brain of treated mice; format: in vivo; conditions: S-ibuprofen 375 ppm in diet vs control diet, 15 days
T2 construct: from tissue; host or cells: frozen brain of wtPS1 transgenic mice
T2 sequence (P56818 46-501): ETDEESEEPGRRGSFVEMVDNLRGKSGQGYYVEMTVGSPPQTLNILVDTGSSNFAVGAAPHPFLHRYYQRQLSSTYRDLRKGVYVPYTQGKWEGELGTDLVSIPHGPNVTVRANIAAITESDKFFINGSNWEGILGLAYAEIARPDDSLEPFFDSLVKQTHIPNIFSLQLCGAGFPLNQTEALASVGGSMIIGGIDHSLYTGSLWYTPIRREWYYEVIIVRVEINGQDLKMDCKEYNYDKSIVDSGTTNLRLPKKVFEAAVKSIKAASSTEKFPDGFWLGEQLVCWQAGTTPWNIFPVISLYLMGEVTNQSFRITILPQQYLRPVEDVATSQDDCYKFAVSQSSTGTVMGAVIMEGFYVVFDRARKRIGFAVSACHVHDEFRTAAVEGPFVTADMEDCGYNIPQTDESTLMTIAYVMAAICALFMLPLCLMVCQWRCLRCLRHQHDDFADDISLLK
Experimental: as §3, §4

[1] = Chow consumption and mouse weight during ibuprofen treatment; format: in vivo; conditions: S-ibuprofen 375 ppm in diet vs control diet, 15 days
Experimental: (§5) Ibuprofen treatment of wtPS1 mice: Three-month-old transgenic mice over-expressing wtPS1 were treated with S-ibuprofen (375 ppm in diet, Research Diets, New Brunswick, N.J.) or a control diet for 15 days (6 mice per group). […] At the end of the experimental period animals were sacrificed by CO2 inhalation. The brains were dissected, half of each brain was frozen on dry ice for Aβ ELISA and BACE activity analysis and the other half was fixed in 4% paraformaldehyde for immunohistochemistry.

PS1 [2] = target: T3, PS1 (Homo sapiens, UniProt P49768); experiment: FLIM assay of PS1 N-/C-termini proximity in primary cultured neurons; format: cell-based, mouse; parameters: expressed in transfected cells; host or cells: primary hippocampal-cortical neurons from embryonic day 16-18 mouse brain
Experimental: as §1, with “1999). Transfection protocol: Transient transfection in cells was performed using Superfect reagents (Qiagen, Valencia, Calif.) according to manufacturer's instructions. Primary cultured neurons were transfected with wild-type PS1 plasmid using the method of calcium phosphate co-precipitation as described (Berezovska, O. et al., Brain Res Mol Brain Res 69: 273-280, 1999; Chen, C. et al., Biotechniques 6: 632-638, 1987).” for “1999).”

PS1 [3] = target: T3, PS1; experiment: In vivo FLIM assay of proximity between N- and C-termini of PS1 in brain sections; parameters: expressed in transfected cells; host or cells: primary hippocampal-cortical neurons from embryonic day 16-18 mouse brain; species or system mouse; conditions: mice, 375 ppm in diet, 15 days; control diet 1934±161 psec; P=0.02
Experimental: as §5
Half of the brain was fixed, sectioned at 35 μm, and immunostained with antibodies against the N- and C-termini of PS1.

[4] = tested on: APP and PS1 (PS1/γ-secretase complex); experiment: FLIM assay for PS1 loop-APP C-terminus proximity in CHO cells treated with γ-secretase inhibitors; format: cell-based, Chinese hamster; conditions: WT PS1 CHO cells, donor PS1 loop-FITC, acceptor APP770-CY3, 4 h with DAPT 500 nM or WPE-III-31C 1 μM, non-FRET control 2600 ± 110, untreated 2290 ± 216
Experimental: Chinese hamster ovary (CHO) cells stably transfected with APP770 and either wild type PS1 (wt PS1) or Aspartate mutant PS1 (D257A PS1) were grown in OPTI-MEM with 5% fetal bovine serum and appropriate antibiotics (Puromycin or Zeocin, respectively, (Berezovska et al., 2000)).
Cells were fixed and immunostained 24 hrs posttransfection as described previously (Jack, C. et al., Brain Res Mol Brain Res 87: 166-174, 2001). We used a polyclonal C8 antibody (Selkoe, D. et al., Proc Natl Acad Sci USA 85: 7341-7345, 1988) to detect the C-terminus of APP. A monoclonal antibody to the loop region of PS1 (Chemicon, Temecula, Calif.) was used to identify the γ-secretase complex. PS1 N-terminal X81 antibody was a gift from D. Selkoe (Brigham and Women's Hospital, Boston, Mass.); PS1 C-terminal antibody was purchased from R&D Systems, Inc., Minneapolis, Minn.). For FRET/FLIM studies we chose Cy3-labeled goat anti-rabbit as the acceptor fluorophore, and FITC-labeled goat anti-mouse as the donor fluorophore.
Fluorescence Lifetime Imaging Microscopy (FLIM) relies on the observation that fluorescence lifetimes (the time of fluorophore emission after brief excitation, measured in picoseconds) are shorter in the presence of a FRET acceptor. […] We used a high-speed Hamamatsu detector and hardware/software from Becker and Hickl (Berlin, Germany) to measure fluorescence lifetimes on a pixel-by-pixel basis. […]
The following controls were used to establish and validate the FLIM assay: (1) As a negative control, FITC lifetime was measured in the absence of the acceptor. […] (2) As a positive control, FITC lifetime was measured in the presence of an acceptor. […] By contrast, the FITC fluorescence lifetime (FLIM image) within the area where the acceptor was photobleached reverts to a longer lifetime (color-coded as blue), identical to the lifetime of FITC in the absence of an acceptor (as in the negative control, FIG. 7A). […]
If there was no interaction, lifetimes on the order of ˜2600 psec were observed. If FRET was detected, a population with a statistically shorter lifetime (<˜2400 psec) was observed.

PS1 [5] = target: T3, PS1; experiment: Confocal staining with biotinylated WPE31C as histological reagent (wt PS1 vs D257A PS1 cells); format: cell-based; parameters: expressed in transfected cells; conditions: cells expressing wt PS1
Experimental: PS1 immunostaining co-localizes with CY3-streptavidin labeled WPE-31C-bi in the cells expressing wt PS1. […] Bar=[…].
We reasoned that an agent that binds to the active site would compete with APP, blocking the APP-PS1 interaction if the first possibility were the case. […] The cells were treated with WPE-31C to examine whether APP would still be associated with the PS1 loop region. […] It has been observed that transition state analogues like WPE31C bind specifically to the heterodimeric form of PS1, and not to the holoprotein prior to cleavage. […] We used a biotinylated form of WPE31C (Esler, W. P. et al., Proc Natl Acad Sci USA 99: 2720-2725, 2002) as a histological reagent. […] Of note, there was less WPE-31C/Cy3 signal in the proximal perinuclear compartment, compared with PS1 immunoreactivity, confirming our observation that some of this PS1 is in a different conformation and is likely not proteolytically active.

| SMILES | Aβ42 level (ELISA) (Aβ40, Aβ42 and Aβ1-x) | Aβ40 level (ELISA) (Aβ40, Aβ42 and Aβ1-x) | Aβ1-x level (ELISA) (Aβ40, Aβ42 and Aβ1-x) | FITC lifetime (PS1 N- to C-termini distance) (PS1 [2]) | further results |
| --- | --- | --- | --- | --- | --- |
| CC(C)Cc1ccc([C@@H](C)C(=O)O)cc1 [R-ibuprofen, (R)-ibuprofen] | marked reduction; also recorded: dose-dependent reduction | – | – | – | – |
| CC(C)Cc1ccc([C@H](C)C(=O)O)cc1 [S-ibuprofen, (S)-ibuprofen] | marked reduction; also recorded: dose-dependent reduction | reduced | did not observe a change | significantly increased | FITC lifetime APP-CT (mean ± SD) (APP and PS1): 2307 ± 107 psec; FITC lifetime APP-CT (mean ± SD) (APP and PS1; listed as ibuprofen): increased FITC lifetime; reduction of Aβ42/Aβ40 ratio in the brain vs control diet (Aβ42 and Aβ40): 12%; BACE activity in brain (BACE): No differences; amount of chow consumed, mouse weight [1]: no differences; FITC lifetime, brain sections stained for PS1 N- and C-termini (PS1 [3]): 2205±104 psec |
| COC(=O)[C@@H](NC(=O)[C@H](CC(C)C)NC(=O)N(Cc1ccccc1)C[C@@H](O)[C@H](Cc1ccccc1)NC(=O)OC(C)(C)C)C(C)C [WPE-III-31C] | – | – | – | – | FITC Lifetime (psec) mean ± SD ([4]; listed as WPE31C): 1972 ± 264 (n = 30) psec; FITC Lifetime (psec) mean ± SD ([4]; listed as WPE-31C): tight association between APP and PS1; CY3-streptavidin staining / co-localization with PS1 immunostaining (PS1 [5]): strongly stained |
| CC(=O)Oc1ccccc1C(=O)O [aspirin] | No or small change | No or small change | – | – | – |
| CC(C(=O)O)c1ccc(-c2ccccc2)c(F)c1 (centres unmarked) [flurbiprofen] | marked reduction; also recorded: dose-dependent reduction | reduced | did not observe a change | – | – |
| COc1ccc2c(c1)c(CC(=O)O)c(C)n2C(=O)c1ccc(Cl)cc1 [indomethacin] | marked reduction; also recorded: dose-dependent reduction | – | did not observe a change | significantly increased | – |
| COc1ccc2cc([C@H](C)C(=O)O)ccc2c1 [naproxen] | No or small change | No or small change | did not observe a change | not | – |

Source: US20050048539A1, “Methods to monitor molecule conformation and molecule/molecule proximity” (The General Hospital Corporation, priority 2003, published 2005)
